biological target: human PDE10A (Homo sapiens (Human), UniProt Q9Y233); test: human PDE10A full length Scintillation Proximity Assay (SPA); assay type: biochemical; settings: 50 nM cGMP and 50 nM [3H]-cGMP, 20 minutes at room temperature; read-out: PDE10A inhibition IC50
Method in brief: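 Radiometric SPA read-out: after 20 min at room temperature with [^3H]-cGMP/cGMP substrate, zinc sulphate (18 mM) bead stop reagent added and counts read after 1 h. Non-specific signal defined without enzyme; full-length protein used.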

Chain of human PDE10A (Q9Y233 other isoform, or with tags, fused parts or gaps): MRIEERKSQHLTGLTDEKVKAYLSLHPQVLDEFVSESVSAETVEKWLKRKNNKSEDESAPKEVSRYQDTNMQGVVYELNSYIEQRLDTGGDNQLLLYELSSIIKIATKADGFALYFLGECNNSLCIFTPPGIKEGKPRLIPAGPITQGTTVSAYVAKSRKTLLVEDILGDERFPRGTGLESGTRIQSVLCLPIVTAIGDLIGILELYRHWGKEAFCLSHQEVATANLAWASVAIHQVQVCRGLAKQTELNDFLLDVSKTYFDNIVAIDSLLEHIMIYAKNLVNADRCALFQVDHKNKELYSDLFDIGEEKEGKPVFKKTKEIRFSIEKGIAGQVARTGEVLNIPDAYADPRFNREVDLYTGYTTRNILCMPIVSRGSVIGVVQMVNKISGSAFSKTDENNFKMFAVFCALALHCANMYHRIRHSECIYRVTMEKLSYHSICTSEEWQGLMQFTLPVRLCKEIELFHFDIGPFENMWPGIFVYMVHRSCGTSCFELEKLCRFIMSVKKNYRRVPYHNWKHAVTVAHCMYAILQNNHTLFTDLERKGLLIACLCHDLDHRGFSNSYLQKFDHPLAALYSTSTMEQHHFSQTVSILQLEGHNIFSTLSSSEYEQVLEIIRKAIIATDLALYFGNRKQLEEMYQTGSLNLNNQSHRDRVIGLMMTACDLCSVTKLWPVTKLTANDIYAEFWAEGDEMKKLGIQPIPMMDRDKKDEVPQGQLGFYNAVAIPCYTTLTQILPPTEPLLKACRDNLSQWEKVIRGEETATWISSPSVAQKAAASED

| Compound | IC50 |
| --- | --- |
| CN(CC(C)(C)O)C(=O)c1ncncc1NC(=O)c1nc(C2CC2)cnc1Nc1cncnc1 [Example 122, 5-{[6-Cyclopropyl-3-(pyrimidin-5-ylamino)-pyrazine-2-carbonyl]-amino}-pyrimidine-4-carboxylic acid (2-hydroxy-2-methyl-propyl)-methyl-amide] | 45.3 nM |
| CN(CC(C)(C)O)C(=O)c1ncccc1NC(=O)c1nc(C2CC2)cnc1Nc1cncnc1 [Example 123, 6-Cyclopropyl-3-(pyrimidin-5-ylamino)-pyrazine-2-carboxylic acid {2-[(2-hydroxy-2-methyl-propyl)-methyl-carbamoyl]-pyridin-3-yl}-amide] | 9.6 nM |
| CNC(=O)c1nn(C)cc1NC(=O)c1nc(NCCOC)ncc1Nc1cncnc1 [Example 126, 2-(2-Methoxy-ethylamino)-5-(pyrimidin-5-ylamino)-pyrimidine-4-carboxylic acid (1-methyl-3-methylcarbamoyl-1H-pyrazol-4-yl)-amide] | 122 nM |
| CNC(=O)c1nn(C)cc1NC(=O)c1nc(C2CCOC2)ccc1Nc1cncnc1 (stereo not shown) [Example 127, 3-(Pyrimidin-5-ylamino)-6-(tetrahydro-furan-3-yl)-pyridine-2-carboxylic acid (1-methyl-3-methylcarbamoyl-1H-pyrazol-4-yl)-amide] | 8.5 nM |
| CN(C)C(=O)c1ncccc1NC(=O)c1nc(C2CC2)cnc1Nc1cncnc1 [Example 129, 6-Cyclopropyl-3-(pyrimidin-5-ylamino)-pyrazine-2-carboxylic acid (2-dimethylcarbamoyl-pyridin-3-yl)-amide] | 6 nM |
| CCn1ncc(NC(=O)c2nc(C3CC3)cnc2Nc2cncnc2)c1C(=O)NCC(C)(C)O [Example 132, 6-Cyclopropyl-3-(pyrimidin-5-ylamino)-pyrazine-2-carboxylic acid [1-ethyl-5-(2-hydroxy-2-methyl-propylcarbamoyl)-1H-pyrazol-4-yl]-amide] | 16.9 nM |
| CCn1ncc(NC(=O)c2nc(C3CC3)cnc2Nc2cncnc2)c1C(=O)NC [Example 133, 6-Cyclopropyl-3-(pyrimidin-5-ylamino)-pyrazine-2-carboxylic acid (1-ethyl-5-methylcarbamoyl-1H-pyrazol-4-yl)-amide] | 6.7 nM |
| CC(C)Cn1ncc(NC(=O)c2nc(C3CC3)cnc2Nc2cncnc2)c1C(=O)NCC(C)(C)O [Example 134, 6-Cyclopropyl-3-(pyrimidin-5-ylamino)-pyrazine-2-carboxylic acid [5-(2-hydroxy-2-methyl-propylcarbamoyl)-1-isobutyl-1H-pyrazol-4-yl]-amide] | 21.5 nM |

The next compounds have a lower IC50 than those just listed; values first:

| IC50 | Compound |
| --- | --- |
| 2.1 nM | CNC(=O)c1ccncc1NC(=O)c1nc(C2CC2)cnc1Nc1cncnc1 [Example 124, 6-Cyclopropyl-3-(pyrimidin-5-ylamino)-pyrazine-2-carboxylic acid (4-methylcarbamoyl-pyridin-3-yl)-amide] |
| 5.6 nM | CC(C)(CO)NC(=O)c1ccncc1NC(=O)c1nc(C2CC2)cnc1Nc1cncnc1 [Example 125, 6-Cyclopropyl-3-(pyrimidin-5-ylamino)-pyrazine-2-carboxylic acid [4-(2-hydroxy-1,1-dimethyl-ethylcarbamoyl)-pyridin-3-yl]-amide] |
| 1.3 nM | CNC(=O)c1ncccc1NC(=O)c1nc(C2CC2)cnc1Nc1cncnc1 [Example 128, 6-Cyclopropyl-3-(pyrimidin-5-ylamino)-pyrazine-2-carboxylic acid (2-methylcarbamoyl-pyridin-3-yl)-amide] |
| 1.4 nM | CNC(=O)c1c(NC(=O)c2nc(C(C)C)cnc2Nc2cncnc2)cnn1C [Example 131, 6-Isopropyl-3-(pyrimidin-5-ylamino)-pyrazine-2-carboxylic acid (1-methyl-5-methylcarbamoyl-1H-pyrazol-4-yl)-amide] |
| 3.6 nM | Cn1ncc(NC(=O)c2nc(C3CC3)cnc2Nc2cncnc2)c1C(=O)NC1(C)COC1 [Example 136, 6-Cyclopropyl-3-(pyrimidin-5-ylamino)-pyrazine-2-carboxylic acid [1-methyl-5-(3-methyl-oxetan-3-ylcarbamoyl)-1H-pyrazol-4-yl]-amide] |

Reference: patent US8703768B2, “Nitrogen containing heteroaryl compounds” (Hoffmann-La Roche Inc., priority 2010, dated 2014)
